The values below come from ChEMBL document CHEMBL1201862, “PubChem BioAssay data set” (2004).

The target in test [1] is T1, Neuropeptides B/W receptor type 1 (Homo sapiens, UniProt P48145).
T1 sequence (P48145 whole entry): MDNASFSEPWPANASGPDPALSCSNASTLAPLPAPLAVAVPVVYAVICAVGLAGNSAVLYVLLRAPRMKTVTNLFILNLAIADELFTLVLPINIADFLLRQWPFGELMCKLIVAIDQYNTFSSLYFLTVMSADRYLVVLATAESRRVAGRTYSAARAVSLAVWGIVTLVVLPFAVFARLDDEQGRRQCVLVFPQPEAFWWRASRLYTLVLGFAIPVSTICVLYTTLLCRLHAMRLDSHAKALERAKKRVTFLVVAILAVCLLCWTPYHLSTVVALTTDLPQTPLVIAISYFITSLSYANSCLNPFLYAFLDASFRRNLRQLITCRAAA
In words: GPR7 antagonist potency, late-stage follow-up, cell-based, fluorescence, dose response, set 5 (AID 588566). It counts as functional.

Test [2] addresses T2, Melanin-concentrating hormone receptor 1 (Homo sapiens, UniProt Q99705). The test is described as follows: Late-stage fluorescence-based counterscreen for antagonists of the G-protein coupled receptor 7 (GPR7): cell-based dose response assay to identify antagonists of the melanin-concentrating hormone receptor 1 (MCHR1) Set 5. It counts as functional. (In general: Counterscreens check selectivity or assay interference.)

The nature of test [3]: Luminescence Cell-Based Dose Retest to Confirm Inhibitors of Cancer Stem Cells. [Related pubchem assays (depositor defined):AID2717, AID2721]. It counts as functional. As to conditions: Homo sapiens.
Test [4] has as its target Melanocortin receptor 4 (Homo sapiens, UniProt P32245). Type of test: functional, cell-based.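 Further: Cell-based assay with luminescence read-out, confirmatory dose-response testing for agonist activity of biased ligands at MC4R; human U2OS cells with tagged receptor and beta-arrestin; potency of agonists that increase receptor coupling to beta-arrestin.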
Test [5] addresses T3, Sentrin-specific protease 8 (Homo sapiens, UniProt Q96LD8).
T3 sequence (Q96LD8 whole entry): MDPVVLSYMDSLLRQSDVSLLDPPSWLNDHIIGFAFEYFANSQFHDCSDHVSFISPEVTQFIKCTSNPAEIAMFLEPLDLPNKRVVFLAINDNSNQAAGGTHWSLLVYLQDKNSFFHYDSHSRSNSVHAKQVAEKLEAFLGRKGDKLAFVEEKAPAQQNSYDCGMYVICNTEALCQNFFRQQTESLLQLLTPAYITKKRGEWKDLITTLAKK
The test is described as follows: SENP8 protease inhibitors, SAR follow-up, biochemical, luminescence, set 2 (AID 588601). It counts as functional.

In test [6] the target is T4, Sentrin-specific protease 7 (Homo sapiens, UniProt Q9BQF6).
T4 sequence (Q9BQF6 whole entry): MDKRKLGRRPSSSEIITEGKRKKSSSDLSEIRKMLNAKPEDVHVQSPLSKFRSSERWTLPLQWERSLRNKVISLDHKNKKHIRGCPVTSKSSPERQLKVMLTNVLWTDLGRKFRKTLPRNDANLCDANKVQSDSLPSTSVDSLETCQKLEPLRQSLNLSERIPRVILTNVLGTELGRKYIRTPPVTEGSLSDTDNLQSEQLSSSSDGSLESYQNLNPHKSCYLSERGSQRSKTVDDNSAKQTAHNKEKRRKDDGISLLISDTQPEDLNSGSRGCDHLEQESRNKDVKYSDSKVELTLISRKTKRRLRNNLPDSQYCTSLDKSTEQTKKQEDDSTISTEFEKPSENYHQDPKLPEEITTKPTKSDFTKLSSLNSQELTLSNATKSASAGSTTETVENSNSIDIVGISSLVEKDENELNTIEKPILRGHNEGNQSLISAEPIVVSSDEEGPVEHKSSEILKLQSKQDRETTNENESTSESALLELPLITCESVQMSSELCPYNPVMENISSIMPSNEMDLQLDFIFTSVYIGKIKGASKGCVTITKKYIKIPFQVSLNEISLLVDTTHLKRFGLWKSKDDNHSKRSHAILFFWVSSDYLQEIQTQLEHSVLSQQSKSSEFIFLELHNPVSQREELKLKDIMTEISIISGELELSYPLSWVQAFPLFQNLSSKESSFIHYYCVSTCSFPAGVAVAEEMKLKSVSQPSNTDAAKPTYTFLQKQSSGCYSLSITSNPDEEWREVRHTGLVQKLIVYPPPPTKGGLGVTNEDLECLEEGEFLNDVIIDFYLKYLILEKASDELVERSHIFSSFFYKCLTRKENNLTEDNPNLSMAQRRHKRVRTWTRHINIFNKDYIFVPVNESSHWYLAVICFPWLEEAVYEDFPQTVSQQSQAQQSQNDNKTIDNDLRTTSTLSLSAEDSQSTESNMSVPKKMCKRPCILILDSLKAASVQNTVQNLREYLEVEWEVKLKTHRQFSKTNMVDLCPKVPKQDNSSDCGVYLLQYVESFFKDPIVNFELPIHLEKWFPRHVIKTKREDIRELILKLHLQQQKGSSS
In words: SENP7 protease inhibitors, SAR follow-up, biochemical, luminescence, set 2 (AID 588600). Type of test: functional.

For test [7], the target named is T5, Caspase-3 (Homo sapiens, UniProt P42574).
T5 sequence (P42574 whole entry): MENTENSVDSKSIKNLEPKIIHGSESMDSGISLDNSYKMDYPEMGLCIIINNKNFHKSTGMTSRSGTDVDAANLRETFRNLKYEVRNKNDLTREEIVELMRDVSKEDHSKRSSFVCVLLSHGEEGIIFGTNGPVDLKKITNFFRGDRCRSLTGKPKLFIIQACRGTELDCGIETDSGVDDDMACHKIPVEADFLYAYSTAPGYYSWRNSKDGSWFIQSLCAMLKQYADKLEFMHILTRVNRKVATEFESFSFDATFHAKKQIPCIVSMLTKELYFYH
The test is described as follows: caspase-3 inhibitors as off-family protease, SAR follow-up, selectivity assay for SENP protease inhibitor project, biochemical, luminescence, set 2 (AID 588599). It counts as functional.

For test [8], the target named is Neurotensin receptor type 1 (Homo sapiens, UniProt P30989). Type of test: functional.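 Further: Image-based confirmatory dose-response assay measuring agonist activity at NTR1; NTR1-expressing U2OS osteosarcoma cells imaged for beta-arrestin GFP spot formation; agonist potency where compounds increase beta-arrestin recruitment.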
Test [9] can be described thus: HEp-2 cell cytotoxicity, dose response, cytotoxicity control for RSV inhibitor project, HTS (AID 2410). It counts as functional. The settings on record: human respiratory syncytial virus.
In test [10] the target is T6, Sentrin-specific protease 6 (Homo sapiens, UniProt Q9GZR1).
T6 sequence (Q9GZR1 whole entry): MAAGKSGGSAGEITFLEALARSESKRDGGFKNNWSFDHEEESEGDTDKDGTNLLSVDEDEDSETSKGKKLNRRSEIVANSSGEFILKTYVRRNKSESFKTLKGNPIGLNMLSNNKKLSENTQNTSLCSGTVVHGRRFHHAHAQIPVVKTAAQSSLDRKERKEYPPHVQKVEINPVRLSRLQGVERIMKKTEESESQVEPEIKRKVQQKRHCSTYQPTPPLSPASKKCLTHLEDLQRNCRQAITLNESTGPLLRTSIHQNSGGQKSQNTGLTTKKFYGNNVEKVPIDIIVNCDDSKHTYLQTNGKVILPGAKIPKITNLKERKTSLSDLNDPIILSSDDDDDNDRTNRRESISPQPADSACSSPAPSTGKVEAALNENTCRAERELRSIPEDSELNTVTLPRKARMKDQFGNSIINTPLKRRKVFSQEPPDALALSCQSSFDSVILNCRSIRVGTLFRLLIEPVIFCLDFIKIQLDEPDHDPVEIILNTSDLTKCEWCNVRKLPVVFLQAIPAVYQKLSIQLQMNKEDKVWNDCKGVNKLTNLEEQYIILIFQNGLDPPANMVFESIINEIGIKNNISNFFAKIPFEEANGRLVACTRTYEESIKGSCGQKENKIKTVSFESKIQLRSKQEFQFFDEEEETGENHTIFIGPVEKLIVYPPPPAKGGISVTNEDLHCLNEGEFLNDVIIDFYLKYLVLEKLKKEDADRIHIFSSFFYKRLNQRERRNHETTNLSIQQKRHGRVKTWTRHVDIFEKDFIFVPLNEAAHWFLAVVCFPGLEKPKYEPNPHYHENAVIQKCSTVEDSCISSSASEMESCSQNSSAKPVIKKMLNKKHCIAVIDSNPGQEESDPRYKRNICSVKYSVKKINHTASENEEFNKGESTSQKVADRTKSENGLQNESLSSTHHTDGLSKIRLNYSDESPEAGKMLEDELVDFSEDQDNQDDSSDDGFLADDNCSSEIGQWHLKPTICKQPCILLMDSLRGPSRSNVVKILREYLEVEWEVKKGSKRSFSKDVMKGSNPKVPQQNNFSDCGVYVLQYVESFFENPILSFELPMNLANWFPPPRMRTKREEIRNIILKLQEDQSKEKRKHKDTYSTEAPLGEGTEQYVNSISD
The test is described as follows: SENP6 protease inhibitors, SAR follow-up, biochemical, luminescence, set 2 (AID 588598). It counts as functional.

The target of test [11] is T2, Melanin-concentrating hormone receptor 1. In words: Late-stage fluorescence-based counterscreen for antagonists of the G-protein coupled receptor 7 (GPR7): cell-based dose response assay to identify antagonists of the melanin-concentrating hormone receptor 1 (MCHR1) Set 6. It counts as functional.
Test [12] deals with T1, Neuropeptides B/W receptor type 1. The test is described as follows: GPR7 antagonist potency, late-stage follow-up, cell-based, fluorescence, dose response, set 6 (AID 588583). It counts as functional.
The target in test [13] is DNA dC->dU-editing enzyme APOBEC-3A (Homo sapiens, UniProt P31941). The test is described as follows: SAR analysis of small molecule inhibitors of APOBEC3A DNA Deaminase via a fluorescence-based single-stranded DNA deaminase assay. The settings on record: read-out: IC50_Mean. It counts as functional.
Test [14] deals with DNA dC->dU-editing enzyme APOBEC-3G (Homo sapiens, UniProt Q9HC16). The test is described as follows: APOBEC3G deaminase inhibitors, SAR follow-up, biochemical, fluorescence, single-stranded DNA substrate (AID 602136). Type of test: functional. As to conditions: read-out: IC50_Mean.
Test [15] has as its target Latent membrane protein 1 (Human herpesvirus 4 (strain B95-8), UniProt P03230). In words: TES1-eGFP NF-kB reporter inhibition versus Tet-On dsRED, dose response, selectivity assay for LMP1 NF-kB inhibitor project, imaging, HEK293T, dual-color eGFP/dsRED, cherry-picks (AID 588398). Type of test: functional, cell-based.
Test [16] deals with Sphingosine 1-phosphate receptor 1 (Homo sapiens, UniProt P21453). In words: Dose Response Cell-Based Assay for Agonists of the Sphingosine 1-Phosphate Receptor 1 (S1P1): Purchased Analogues. [Related pubchem assays: 1192, 373, 439 ]. It counts as functional.
Test [17] deals with X-box-binding protein 1 (Homo sapiens, UniProt P17861). It counts as functional, Cricetulus griseus.
Test [18] deals with DNA damage-inducible transcript 3 protein (Mus musculus, UniProt P35639). It counts as functional, Cricetulus griseus.
For test [19], the target named is Sphingosine 1-phosphate receptor 4 (Homo sapiens, UniProt O95977). The test is described as follows: Late-stage fluorescence-based dose-response cell-based counterscreen assay to identify agonists of the Sphingosine 1-Phosphate Receptor 3 (S1P3): Sphingosine 1-Phosphate Receptor 4 (S1P4) agonist assay. Type of test: functional.
The target in test [20] is T7, Sphingosine 1-phosphate receptor 2 (Homo sapiens, UniProt O95136). The test is described as follows: Late-stage fluorescence-based dose-response cell-based counterscreen assay to identify agonists of the Sphingosine 1-Phosphate Receptor 3 (S1P3): Sphingosine 1-Phosphate Receptor 2 (S1P2) agonist assay. It counts as functional.
The target in test [21] is T7, Sphingosine 1-phosphate receptor 2. In words: Dose Response Cell-Based Assay for Agonists of the Sphingosine 1-Phosphate Receptor 2 (S1P2): Purchased Analogues. [Related pubchem assays: 1192, 373, 439 ]. Type of test: functional.
The target in test [22] is Sphingosine 1-phosphate receptor 3 (Homo sapiens, UniProt Q99500). In words: Dose Response Cell-Based Assay for Agonists of the Sphingosine 1-Phosphate Receptor 3 (S1P3): Purchased Analogues. [Related pubchem assays: 373, 439 ]. It counts as functional.

Calls of active or inactive are those of the source.
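Wherever Absolute IC50 (XBP1) is given: confirmatory dose-response counter-screen serving a CHOP assay.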

T7 sequence (O95136 whole entry): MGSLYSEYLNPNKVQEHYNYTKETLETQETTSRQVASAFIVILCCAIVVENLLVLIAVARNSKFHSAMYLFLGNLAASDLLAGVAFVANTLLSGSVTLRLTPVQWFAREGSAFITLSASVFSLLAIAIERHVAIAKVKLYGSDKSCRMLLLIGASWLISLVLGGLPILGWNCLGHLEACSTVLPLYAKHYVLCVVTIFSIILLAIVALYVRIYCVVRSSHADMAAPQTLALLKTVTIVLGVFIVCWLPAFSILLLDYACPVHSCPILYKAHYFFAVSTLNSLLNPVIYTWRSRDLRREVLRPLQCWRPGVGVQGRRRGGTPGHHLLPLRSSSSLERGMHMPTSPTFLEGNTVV
T2 sequence (Q99705 whole entry): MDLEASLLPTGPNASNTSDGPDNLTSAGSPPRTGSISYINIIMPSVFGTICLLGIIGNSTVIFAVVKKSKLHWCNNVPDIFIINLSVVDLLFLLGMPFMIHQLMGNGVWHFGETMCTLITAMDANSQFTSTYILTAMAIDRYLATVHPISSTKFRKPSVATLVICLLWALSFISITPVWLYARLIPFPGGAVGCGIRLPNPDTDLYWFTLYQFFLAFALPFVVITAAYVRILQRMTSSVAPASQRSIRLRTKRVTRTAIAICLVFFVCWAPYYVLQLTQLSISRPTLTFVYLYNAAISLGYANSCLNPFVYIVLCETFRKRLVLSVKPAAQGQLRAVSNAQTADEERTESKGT
Sphingosine 1-phosphate receptor 4, sequence (O95977 whole entry): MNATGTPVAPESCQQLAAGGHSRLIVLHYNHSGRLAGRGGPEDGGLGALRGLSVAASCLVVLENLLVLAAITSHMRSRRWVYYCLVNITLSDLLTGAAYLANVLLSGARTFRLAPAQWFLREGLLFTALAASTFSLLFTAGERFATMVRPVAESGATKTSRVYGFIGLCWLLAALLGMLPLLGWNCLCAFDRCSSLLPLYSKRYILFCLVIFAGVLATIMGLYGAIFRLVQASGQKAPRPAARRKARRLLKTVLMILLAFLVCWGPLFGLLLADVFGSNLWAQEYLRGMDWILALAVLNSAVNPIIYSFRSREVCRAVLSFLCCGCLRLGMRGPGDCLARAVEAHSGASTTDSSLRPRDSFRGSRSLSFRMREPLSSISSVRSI
Latent membrane protein 1, sequence (P03230 whole entry): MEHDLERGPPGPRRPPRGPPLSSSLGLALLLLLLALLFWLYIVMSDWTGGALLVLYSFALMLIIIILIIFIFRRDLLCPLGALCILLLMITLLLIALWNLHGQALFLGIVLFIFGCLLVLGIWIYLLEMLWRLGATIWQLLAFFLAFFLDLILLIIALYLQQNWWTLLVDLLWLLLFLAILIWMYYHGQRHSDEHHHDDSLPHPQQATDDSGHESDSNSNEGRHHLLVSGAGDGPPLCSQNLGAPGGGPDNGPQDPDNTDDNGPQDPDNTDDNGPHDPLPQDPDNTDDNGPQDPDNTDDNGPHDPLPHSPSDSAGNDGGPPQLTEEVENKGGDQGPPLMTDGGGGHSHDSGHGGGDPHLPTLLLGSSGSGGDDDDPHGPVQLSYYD
Neurotensin receptor type 1, sequence (P30989 whole entry): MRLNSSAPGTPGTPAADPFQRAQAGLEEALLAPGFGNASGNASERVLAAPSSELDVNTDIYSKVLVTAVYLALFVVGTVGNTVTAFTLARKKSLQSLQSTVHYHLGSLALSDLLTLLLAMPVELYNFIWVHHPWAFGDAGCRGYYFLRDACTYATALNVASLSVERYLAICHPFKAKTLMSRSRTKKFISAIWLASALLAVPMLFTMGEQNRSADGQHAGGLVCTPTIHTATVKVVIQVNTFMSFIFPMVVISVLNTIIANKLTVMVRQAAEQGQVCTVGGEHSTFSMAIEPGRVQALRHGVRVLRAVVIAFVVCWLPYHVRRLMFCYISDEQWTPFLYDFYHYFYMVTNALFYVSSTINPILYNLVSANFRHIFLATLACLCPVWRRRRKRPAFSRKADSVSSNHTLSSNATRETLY
Sphingosine 1-phosphate receptor 1, sequence (P21453 whole entry): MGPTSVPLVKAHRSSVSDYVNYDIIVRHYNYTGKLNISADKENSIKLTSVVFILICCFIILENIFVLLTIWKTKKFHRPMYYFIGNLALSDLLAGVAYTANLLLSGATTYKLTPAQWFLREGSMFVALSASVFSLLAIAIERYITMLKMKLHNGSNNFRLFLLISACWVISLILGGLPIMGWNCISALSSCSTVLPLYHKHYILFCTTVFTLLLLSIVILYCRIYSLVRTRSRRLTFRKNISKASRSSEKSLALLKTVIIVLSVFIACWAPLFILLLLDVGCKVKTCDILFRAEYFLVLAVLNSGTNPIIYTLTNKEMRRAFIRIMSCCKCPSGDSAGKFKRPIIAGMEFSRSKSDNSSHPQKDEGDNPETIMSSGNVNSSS
Sphingosine 1-phosphate receptor 3, sequence (Q99500 whole entry): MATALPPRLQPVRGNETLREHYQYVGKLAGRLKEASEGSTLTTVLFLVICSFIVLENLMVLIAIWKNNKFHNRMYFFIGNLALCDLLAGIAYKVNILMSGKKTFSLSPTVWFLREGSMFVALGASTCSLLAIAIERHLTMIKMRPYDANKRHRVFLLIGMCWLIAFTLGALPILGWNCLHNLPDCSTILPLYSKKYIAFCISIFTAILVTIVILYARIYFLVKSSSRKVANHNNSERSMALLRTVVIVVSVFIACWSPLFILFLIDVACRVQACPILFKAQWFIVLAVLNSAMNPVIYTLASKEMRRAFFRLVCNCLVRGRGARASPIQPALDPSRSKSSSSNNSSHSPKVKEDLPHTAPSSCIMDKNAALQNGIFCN
Melanocortin receptor 4, sequence (P32245 whole entry): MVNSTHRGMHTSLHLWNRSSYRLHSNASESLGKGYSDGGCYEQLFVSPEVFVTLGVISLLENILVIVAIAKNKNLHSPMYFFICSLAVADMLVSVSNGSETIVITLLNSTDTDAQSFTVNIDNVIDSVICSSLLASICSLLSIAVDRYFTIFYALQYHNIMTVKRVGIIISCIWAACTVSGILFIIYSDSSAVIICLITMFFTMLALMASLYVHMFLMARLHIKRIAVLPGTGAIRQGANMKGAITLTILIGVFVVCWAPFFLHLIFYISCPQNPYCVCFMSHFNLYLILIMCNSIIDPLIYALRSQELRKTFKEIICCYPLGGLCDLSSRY
X-box-binding protein 1, sequence (P17861 whole entry): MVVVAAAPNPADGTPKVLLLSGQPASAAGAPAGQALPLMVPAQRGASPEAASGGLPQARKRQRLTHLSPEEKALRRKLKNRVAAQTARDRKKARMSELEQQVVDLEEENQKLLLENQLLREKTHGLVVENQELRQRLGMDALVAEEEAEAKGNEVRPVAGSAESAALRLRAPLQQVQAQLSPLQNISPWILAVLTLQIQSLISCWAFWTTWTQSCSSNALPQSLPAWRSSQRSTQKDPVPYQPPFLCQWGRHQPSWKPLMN
DNA dC->dU-editing enzyme APOBEC-3A, sequence (P31941 whole entry): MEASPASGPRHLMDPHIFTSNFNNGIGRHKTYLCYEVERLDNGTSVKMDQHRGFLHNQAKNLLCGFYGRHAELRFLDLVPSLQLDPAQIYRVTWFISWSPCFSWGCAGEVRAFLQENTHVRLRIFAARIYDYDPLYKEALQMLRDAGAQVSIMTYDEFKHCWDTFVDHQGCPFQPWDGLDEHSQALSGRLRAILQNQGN
DNA dC->dU-editing enzyme APOBEC-3G, sequence (Q9HC16 whole entry): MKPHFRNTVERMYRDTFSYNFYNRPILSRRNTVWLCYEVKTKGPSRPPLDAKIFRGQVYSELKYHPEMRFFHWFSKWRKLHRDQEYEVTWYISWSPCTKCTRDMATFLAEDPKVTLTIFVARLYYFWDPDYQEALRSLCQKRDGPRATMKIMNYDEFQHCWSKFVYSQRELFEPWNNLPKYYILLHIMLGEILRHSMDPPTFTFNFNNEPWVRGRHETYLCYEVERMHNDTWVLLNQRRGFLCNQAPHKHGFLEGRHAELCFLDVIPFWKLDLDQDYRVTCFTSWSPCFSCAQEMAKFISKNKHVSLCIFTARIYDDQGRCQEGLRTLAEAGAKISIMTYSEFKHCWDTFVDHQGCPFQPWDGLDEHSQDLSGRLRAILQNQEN
DNA damage-inducible transcript 3 protein, sequence (P35639 whole entry): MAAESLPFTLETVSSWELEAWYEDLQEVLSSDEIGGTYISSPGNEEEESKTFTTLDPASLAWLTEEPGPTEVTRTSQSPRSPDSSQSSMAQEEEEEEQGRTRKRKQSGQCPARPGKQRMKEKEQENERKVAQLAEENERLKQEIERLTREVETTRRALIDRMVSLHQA

As for `CCOc1ccc(C(C#N)c2c(Cl)cnn(Cc3cccc4ccccc34)c2=O)cc1` (configuration not stated), the IC50 was 0.234 µM (active) in [1] and > 20 µM (inactive) in test [2].

For orientation: AC50 means the concentration giving half of the maximal activity seen. Usually EC50 stands for the concentration that produces a half-maximal response. One may read the CC50 as the concentration that lowers cell viability or growth by half. Take `O=C(N/N=C/c1c[nH]c2ccccc12)C1CC1(c1ccccc1)c1ccccc1` (configuration not stated): in test [3], the AC50 was 4.64 µM (active). For the same compound, the EC50 in [4] was > 89.2 µM (inactive); in [8], 12.3 µM (active). Further, the IC50 in test [5], in test [6], in test [7] and in test [10] was > 99 µM (inactive) throughout. In test [9], the CC50 was 16 µM (active).

`N#CC(c1c(F)cccc1Cl)c1c(Cl)cnn(Cc2cccc3ccccc23)c1=O` (configuration not stated): the IC50 in [11] and in test [12] was 0.706 µM (active) throughout.

As to `O=C(CSc1nc2cccnc2[nH]1)Nc1cccc(Br)c1`, the IC50 in test [13] and in [14] was > 99 µM (inactive) each time.

With `CCN1C(=O)[C@@H]2[C@@H](c3ccc(-c4ccc(Cl)c(Cl)c4)cc3)N3CCC[C@@]3(C(=O)OC)[C@@H]2C1=O`, the half-maximal activity concentration (AC50) in test [15] was 70.2 µM (active).

With `CCCc1cc(C(=O)N(C2CCCCC2)C2CCCCC2)no1`, the EC50 was > 50 µM (not active) in test [16]; > 50 µM (inactive) in [19]; > 50 µM (inactive) in [20]; > 10 µM (not active) in test [21]; 0.243 µM (active) in test [22]. Moreover, the “Absolute IC50 (XBP1)” value in test [17] came to 10 µM. The “Absolute IC50 (CHOP)” value in test [18] came out at 10 µM.
